This is an account of results in ChEMBL document CHEMBL5260821, “2-Aminothiophene scaffolds: Diverse biological and pharmacological attributes in medicinal chemistry” (Eur J Med Chem, 2017).

pEC50, pIC50: −log10 of the molar value. Where only a bound is given, the exact number is not on record here.

One experiment has as its system T47D. Briefly: Antiproliferative activity against human T47D cells assessed as reduction in cell viability measured for 48 hr by MTT assay. The experiment is classed as functional, cell-based. Background: Formazan colour is commonly taken as a measure of viable cells.
Another experiment deals with A549. Briefly: Antiproliferative activity against human A549 cells assessed as reduction in cell viability measured for 48 hr by MTT assay. The format is functional, cell-based. The following applies: A549, 48 h.
For a further experiment, the system named is HCT-15. Kind of experiment: Antiproliferative activity against human HCT-15 cells assessed as reduction in cell viability measured for 48 hr by MTT assay. The experiment is classed as functional, cell-based. The following applies: HCT-15, 48 h.
The test system of experiment [1] is Influenza A virus. Kind of experiment: Antiviral activity against Influenza A virus A/WSN/33(H1N1) strain. The experiment is classed as functional, organism-based.
Experiment [2] has as its system Influenza A virus. Kind of experiment: Antiviral activity against Influenza A virus H3N2 subtype. The experiment is classed as functional, organism-based.
In experiment [3] the test system is Influenza A virus. Kind of experiment: Antiviral activity against influenza A virus. The experiment is classed as functional, organism-based.
In another experiment the test system is Staphylococcus aureus. Kind of experiment: Antibacterial activity against Staphylococcus aureus ATCC 6538 assessed as inhibition zone. The experiment is classed as functional.
A further experiment concerns Escherichia coli. Briefly: Antibacterial activity against Escherichia coli ATCC 11229 assessed as inhibition zone. The format is functional.
The subject of another experiment is Candida albicans. Briefly: Antifungal activity against Candida albicans ATCC 10231 assessed as inhibition zone. The experiment is classed as functional.
The target in another experiment is Neprilysin (Homo sapiens, UniProt P08473). Kind of experiment: Partial agonist activity at human neprilysin expressed in CHP-212 cells. The experiment is classed as cell-based.
A further experiment relates to PC-3. Kind of experiment: Antiproliferative activity against human PC-3 cells assessed as reduction in cell viability measured for 48 hr by MTT assay. The format is functional, cell-based. The following applies: PC-3, 48 h.
A further experiment deals with CCRF-CEM. Briefly: Antiproliferative activity against human CEM cells assessed as reduction in cell viability. The format is functional, cell-based.
The test system of experiment [4] is HeLa. Kind of experiment: Antiproliferative activity against human HeLa cells assessed as reduction in cell viability at 10 to 50 uM relative to control. The experiment is classed as functional. The following applies: dose 10-50 µM.
For experiment [5], the system named is PANC-1. Kind of experiment: Antiproliferative activity against human PANC-1 cells assessed as reduction in cell viability at 25 to 50 uM relative to control. The format is functional. The settings on record: dose 25-50 µM.
Experiment [6] concerns HeLa. Kind of experiment: Induction of cell cycle arrest in human HeLa cells assessed as accumulation of cells in subG1 phase. The format is functional.
Experiment [7] relates to PANC-1. Kind of experiment: Induction of cell cycle arrest in human PANC-1 cells assessed as accumulation of cells in G0/G1 phase. The format is functional.

Chain of Neprilysin (P08473 whole entry): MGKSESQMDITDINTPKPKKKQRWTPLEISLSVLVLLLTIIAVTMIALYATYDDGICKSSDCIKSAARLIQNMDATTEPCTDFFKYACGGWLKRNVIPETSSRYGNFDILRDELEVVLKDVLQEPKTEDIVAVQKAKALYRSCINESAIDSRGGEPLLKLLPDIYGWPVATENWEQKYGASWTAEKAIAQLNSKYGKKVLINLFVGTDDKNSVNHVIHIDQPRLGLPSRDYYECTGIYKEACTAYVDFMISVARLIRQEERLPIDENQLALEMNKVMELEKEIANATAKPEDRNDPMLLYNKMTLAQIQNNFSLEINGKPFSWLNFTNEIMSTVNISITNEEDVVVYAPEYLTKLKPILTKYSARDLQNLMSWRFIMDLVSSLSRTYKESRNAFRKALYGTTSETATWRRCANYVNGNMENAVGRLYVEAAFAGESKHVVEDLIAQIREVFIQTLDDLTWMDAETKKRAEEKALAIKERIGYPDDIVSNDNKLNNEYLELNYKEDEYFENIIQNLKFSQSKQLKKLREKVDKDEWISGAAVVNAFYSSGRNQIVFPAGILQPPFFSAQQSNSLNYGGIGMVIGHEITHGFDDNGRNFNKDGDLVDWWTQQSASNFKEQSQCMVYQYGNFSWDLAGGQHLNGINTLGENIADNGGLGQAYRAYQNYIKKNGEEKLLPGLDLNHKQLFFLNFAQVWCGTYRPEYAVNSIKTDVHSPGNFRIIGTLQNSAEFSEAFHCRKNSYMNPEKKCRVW

Regarding `CCOC(=O)c1c(N)sc(/N=C/c2ccc([N+](=O)[O-])o2)c1C(=O)OCC`, the pIC50 (commonly the negative decadic logarithm of the IC50, by convention in mol/L) in the experiment with T47D is 4.67; with A549 it was 4.64; in the experiment on HCT-15 it was 4.99; in the experiment with Influenza A virus [1], 6.03; in the experiment with Influenza A virus [2] it was 5.62; in the experiment on Influenza A virus [3], 6.10. Further, the “inhibition zone (IZ)” value is recorded as 22 mm in the experiment with Staphylococcus aureus, 16 mm in the experiment on Escherichia coli and above 22 mm in the experiment with Candida albicans.
As to `CCCN(CC(F)(F)F)c1cc(Br)c(C#N)s1`, the pEC50 – broadly, −log10 of the EC50, conventionally taken in molar units – on Neprilysin is 8.30.
As for `CCOC(=O)c1c(N)sc(/N=C/c2ccc([N+](=O)[O-])s2)c1C(=O)OCC`, the pIC50 with A549 is 5.89; with PC-3 it was 4.96; in the experiment with HCT-15, 5.21; in the experiment with Influenza A virus [1], 5.45; with Influenza A virus [2], 5.43; with Influenza A virus [3], 4.98.
On to `COC(=O)c1cc(CSCc2ccc(C(C)C)cc2)sc1N`, for which the pIC50 with CCRF-CEM is 6.34.
Consider `COc1ccc(Br)cc1/C=N/c1sc2c(c1C#N)CCCCC2`, for which the Activity with HeLa [4] is reported as 35%; in the experiment on PANC-1 [5] it was 50%; in the experiment with HeLa [6] it was 6.2%; in the experiment on PANC-1 [7] it was 28.2%.
Consider `N#Cc1c(/N=C/c2ccc(F)cc2)sc2c1CCCC2`, for which the Activity in the experiment on HeLa [4] came out at 50%; with PANC-1 [5] it was 68%; with HeLa [6], 12.05%; with PANC-1 [7], 9.3%.
On to `CCc1ccc(CSCc2cc(C(=O)OC)c(N)s2)cc1`, for which the pIC50 in the experiment on CCRF-CEM was 6.47.
